In brackets after ≈: the same amount, converted by molar mass. Like-named read-outs stand apart in the source and are kept apart here.

The test system of assay [1] is collagen-induced arthritis (CIA) in female Lewis rats. Briefly: Histological evaluation of ankle cross-sections from CIA rats. Format: in vivo, rat. The conditions noted are these: multiple administration, compared to vehicle control. As to the method: At a day 0 of the experiment animals were subcutaneously (SC) injected at the base of the tail with 200 μL of the emulsion using a 27 gauge × 5/8″ needle and Hamilton syringe. At day 7 after the initial immunization, a booster injection with 100 μL of emulsion was performed. Ninety % of rats developed symptoms of disease (paw swelling >150% of day 0) at day 20 of the experiment. At this day, diseased animals were randomly divided into five groups (n = 6). […] One investigated group received (±)-LSF dissolved in saline at an SC dose of 80 mg kg^−1 once daily. The corresponding control groups were administered with appropriate volumes of vehicles IP or SC. At day 40 animals were sacrificed. Hind paws of rats were taken and immersed into 4% buffered formalin solution for a subsequent histological analysis. Blood samples were collected and allowed to clot for 20 min and then centrifuged at 2000 x g for 15 min. Serum samples were collected and frozen at -80°C.
The morphological studies were performed with the imaging CellSens Dimention (Olympus) software. Osteoarthritis histopathology was assessed based on the symptoms associated with synovial inflammation, chondropathy, and subchondral osteoarthritis. Synovitis index estimation involved synovial inflammation, synovial lining thickness, dense of cellularity, and presence of perivascular lymphoid aggregates, where normal synovium (score 0) is defined as thin linning with sparse cellular distribution and no/few inflammatory cells, mild and moderate synovial inflammation (score 1 to 2) indicate thickness of linning with dense cellularity with inflammatory cells, and severe inflammation (score 3) means hypervascular synovitis containing lymphoid aggregates. Two aspects of chondropathy were graded: surface integrity and chondrocyte yielding score 0 for normal morphology to score 3 for chondral lesion with chondrocyte hypercellurarity and/or cloning, and complete cartilage surface integrity loss. Subchondral plate thickening, bone trabeculae deterioration, bone marrow lesion (bone pseudocysts - cavitary lesion formation) associated with fibrovascular replacement of marrow spaces were accounted for subchondral osteoarthritis with grading score from 0 to 3 in severe lesion. The sample preparation procedure for histological evaluation is described in the supplementary materials.
The hind paws were cut about 0.5 cm above the rat joint. Then the joints were fixed in 4% buffered formalin for one week, decalcified, dehydrated in ethanol solutions of increasing concentrations, and embedded in the paraffin blocks. Subsequently, paws were serially cut at 6-μm thickness using a rotational microtome Leica RM 2145 type and stained with Masson's Trichrome. Digital images were taken using a computerized digital camera (Olympus UC90, Olympus).

Assay [2] deals with TNF-α plasma levels in male Wistar rats with LPS-induced endotoxemia. Description: LPS-induced endotoxemia in rats, PK/PD model of plasma TNF-α. Format: in vivo, rat. The conditions noted are these: for IC50: Rattus norvegicus, iv; for activity in inhibiting TNF-α release in vivo, times lower than that of rolipram: ratio of IC50 values to rolipram. As to the method:
Male Wistar rats were implanted with catheters (SAI Infusion Technologies, USA) into the jugular vein and after a two-day recovery period they were administered with LPS dissolved in saline at a dose of 1 mg kg ^−1 into the tail vein simultaneously with one of the investigated compounds. […] The doses of the compounds were selected based on the literature data or results of our previous experiments. Each control group received LPS at the same IV dose and an appropriate volume of corresponding vehicle. […] The plasma samples were collected and stored at −80°C until analysis.
TNF-α levels in LPS-stimulated rat blood in vitro and in rat plasma samples from the in vivo studies were analyzed by the Rat TNF-α Quantikine ELISA Immunoassay Kit (R&D Systems, USA) according to the manufacturer’s instructions. The assay was linear at the range of 12.5–800 pg mL^−1. Levels of TNF-α in mice serum were measured by ELISA Kits for Tumor Necrosis Factor Alpha (Cloud-Clone Corp., USA). This assay was linear at the range of 15.6–1000 pg mL^−1. Absorbance was measured at 450 nm using a POLARstar Omega multi-mode microplate reader (BMG LABTECH, Germany).
PK/PD and PK/PD/DIS progression models were developed considering the mechanism of action of the investigated compounds, the mechanisms of disease progression in the case of CIA, and the subsequent stages leading to TNF-α release in the case of LPS-induced endotoxemia. Various numbers of transit compartments were tested during development of the models, and the final models were chosen based on the goodness-of-fit criteria, such as AIC, SBC, a visual inspection of the fitting, and parameter precision. Estimated values of pharmacokinetic parameters were fixed during PK/PD and PK/PD/DIS progression model fitting procedures. […] PK/PD and PK/PD/DIS progression modeling were performed in ADAPT 5 software using the weighted least squares algorithm.
Therefore, as a result of PK/PD analysis, three sets of pharmacodynamic parameters were obtained based on the data from the three individual experiments.
The applied model is a modified indirect response model ([19]) with implemented transit compartments (T1-T4) that describe the delay of the observed pharmacodynamic response. In this scheme τ is the mean transit time, kin is the time limited (from 0 to tlag) zero-order rate constant of production of a TNF-α precursor (e.g., TNF-α mRNA). Different numbers of transit compartments were tested during the model development, but the best fit was observed using four transit compartments.
All Imax values were fixed to 1.

Setting [3] is: read-out: IC50, concentration of compound producing 50% of Imax (inhibition of TNF-α release in vivo), Final estimate (CV%), plasma concentration, PK/PD model, Imax fixed to 1, male Wistar rats, LPS 1 mg kg^−1 IV, IV GRMS-55 20, rolipram 5, (±)-LSF and PTX 40 and 80 mg kg^−1.

With `CC(O)CCCCn1c(=O)c2c(ncn2C)n(C)c1=O` (racemic) [(±)-LSF, lisofylline], in assay [1], the “chondritis / articular cartilage, histological score (result in words)” value is “attenuated”; the “subchondral osteoarthritis, histological score (result in words)” value is recorded as “failed to significantly diminish”; the “synovitis / synovial inflammation, histological score (result in words)” value was “significant alleviation”. In addition, the IC50 in assay [2] (setting [3]) is 5.8 µg/mL (≈ 20.7 µM). For the same molecule, the “potency in inhibiting TNF-α release in vivo, times stronger than PTX” value in assay [2] (ratio of IC50 values) is on record as ~ 2.4 times. In addition, the “activity in inhibiting TNF-α release in vivo, times lower than that of rolipram” value in assay [2] was ~ 16 times.

On to `Cn1c(=O)c2c(nc(NCCc3ccccc3)n2CCCC(=O)NN=Cc2ccccc2O)n(C)c1=O` [GRMS-55, 4-(1,3-Dimethyl-2,6-dioxo-8-(phenethylamino)-2,3,6,7-tetrahydro-1H-purin-7-yl)-N′-(2-hydroxybenzylidene)butanehydrazide], for which, in assay [1], the “chondritis / articular cartilage, histological score (result in words)” value was “attenuated”; the “subchondral osteoarthritis, histological score (result in words)” value is recorded as “attenuated”; the “synovitis / synovial inflammation, histological score (result in words)” value was “significant alleviation”. Further, the IC50 in assay [2] (setting [3]) is approximately 1.1 µg/mL (≈ 2.18 µM). Besides, the “activity in inhibiting TNF-α release in vivo, times lower than that of rolipram” value in assay [2] is on record as ~ 3 times.

`COc1ccc(C2CNC(=O)C2)cc1OC1CCCC1` (stereo not drawn) [Rolipram, rolipram]: in assay [1], the “chondritis / articular cartilage, histological score (result in words)” value is listed as “significant amelioration”; the “subchondral osteoarthritis, histological score (result in words)” value was “significant amelioration”; the “synovitis / synovial inflammation, histological score (result in words)” value is recorded as “significant amelioration”. The IC50 in assay [2] (read-out: IC50, concentration of compound producing 50% of Imax (inhibition of TNF-α release in vivo), Final estimate (CV%)) is 0.36 µg/mL (≈ 1.31 µM).

(Values after publication PMC6940354, “Comparative Assessment of the New PDE7 Inhibitor – GRMS-55 and Lisofylline in Animal Models of Immune-Related Disorders: A PK/PD Modeling Approach” (Pharmaceutical Research, 2020).)
